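How tested: cells in 96-well plates exposed to compound for 48 hours at five concentrations. The concentration for 50% growth inhibition is given as GI50. TGI marks complete inhibition of growth.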
Key:
Experiment in all cases: inhibition of tumour cell growth, NCI panel, 48 h
A549 NSCLC = system: A549 NSCLC
NCI-H522 lung = system: NCI-H522 lung
CCRF-CEM leukemia = system: CCRF-CEM leukemia
NCI/ADR-RES ovarian = system: NCI/ADR-RES ovarian
T-47D breast = system: T-47D breast
SK-MEL-2 melanoma = system: SK-MEL-2 melanoma
RXF 393 renal = system: RXF 393 renal
U251 CNS = system: U251 CNS
OVCAR-5 ovarian = system: OVCAR-5 ovarian
OVCAR-4 ovarian = system: OVCAR-4 ovarian

Nc1nc(-c2cccs2)cs1
TGI (A549 NSCLC): > 100 µM | TGI (NCI-H522 lung): > 100 µM | TGI (CCRF-CEM leukemia): > 100 µM | TGI (NCI/ADR-RES ovarian): > 100 µM | TGI (T-47D breast): > 100 µM | TGI (SK-MEL-2 melanoma): > 100 µM | TGI (RXF 393 renal): > 100 µM | TGI (U251 CNS): > 100 µM | TGI (OVCAR-5 ovarian): > 100 µM | TGI (OVCAR-4 ovarian): > 100 µM

Cc1nc2sc(C(=O)Nc3cccc(Br)c3)c(N)c2cc1C(O)c1ccccc1 (stereo not given)
GI50 (A549 NSCLC): 0.9 µM | TGI (A549 NSCLC): > 71.3 µM | GI50 (NCI-H522 lung): 0.726 µM | TGI (NCI-H522 lung): > 28.4 µM | GI50 (CCRF-CEM leukemia): 0.413 µM | TGI (CCRF-CEM leukemia): > 43.2 µM | GI50 (NCI/ADR-RES ovarian): 0.619 µM | TGI (NCI/ADR-RES ovarian): 8.47 µM | GI50 (T-47D breast): 0.665 µM | TGI (T-47D breast): 31 µM | GI50 (SK-MEL-2 melanoma): 1.77 µM | TGI (SK-MEL-2 melanoma): 26.4 µM | GI50 (RXF 393 renal): 0.483 µM | TGI (RXF 393 renal): 10.9 µM | GI50 (U251 CNS): 0.52 µM | TGI (U251 CNS): > 70.9 µM | GI50 (OVCAR-5 ovarian): 3.09 µM | TGI (OVCAR-5 ovarian): 20.1 µM | GI50 (OVCAR-4 ovarian): 1.31 µM | TGI (OVCAR-4 ovarian): 20.4 µM

Clc1ccc2c(NCCNc3nc(N4CCCC4)nc4ccccc34)ccnc2c1
GI50 (A549 NSCLC): 0.29 µM | TGI (A549 NSCLC): 2.54 µM | GI50 (NCI-H522 lung): 1.36 µM | TGI (NCI-H522 lung): 3.1 µM | GI50 (CCRF-CEM leukemia): 0.457 µM | TGI (CCRF-CEM leukemia): > 100 µM | GI50 (NCI/ADR-RES ovarian): 2.78 µM | TGI (NCI/ADR-RES ovarian): 11.1 µM | GI50 (T-47D breast): 1.6 µM | TGI (T-47D breast): 3.99 µM | GI50 (SK-MEL-2 melanoma): 1.86 µM | TGI (SK-MEL-2 melanoma): 3.85 µM | GI50 (RXF 393 renal): 1.23 µM | TGI (RXF 393 renal): 2.63 µM | GI50 (U251 CNS): 1.49 µM | TGI (U251 CNS): 3.15 µM | GI50 (OVCAR-5 ovarian): 2.15 µM | TGI (OVCAR-5 ovarian): 6.38 µM | GI50 (OVCAR-4 ovarian): 1.28 µM | TGI (OVCAR-4 ovarian): 3.58 µM

Cc1cc2nc(C(Cl)Cl)nc(-c3ccccc3)n2n1
GI50 (A549 NSCLC): 2.48 µM | TGI (A549 NSCLC): 6.45 µM | GI50 (NCI-H522 lung): 4.27 µM | TGI (NCI-H522 lung): > 100 µM | GI50 (CCRF-CEM leukemia): 25.8 µM | TGI (CCRF-CEM leukemia): > 100 µM | GI50 (NCI/ADR-RES ovarian): 3.78 µM | TGI (NCI/ADR-RES ovarian): 29.9 µM | GI50 (T-47D breast): 4 µM | TGI (T-47D breast): 89.1 µM | GI50 (SK-MEL-2 melanoma): 27.8 µM | TGI (SK-MEL-2 melanoma): > 100 µM | GI50 (RXF 393 renal): 2.27 µM | TGI (RXF 393 renal): 5.75 µM | GI50 (U251 CNS): 3.13 µM | TGI (U251 CNS): 24.3 µM | GI50 (OVCAR-5 ovarian): 3.3 µM | TGI (OVCAR-5 ovarian): 17.1 µM | GI50 (OVCAR-4 ovarian): 2.19 µM | TGI (OVCAR-4 ovarian): 7.51 µM

C=C(C)[C@@H]1CC[C@]2(C(N)=O)CC[C@]3(C)[C@H](CC[C@@H]4[C@@]5(C)C/C(=C/c6cccnc6)[C@H](O)C(C)(C)[C@@H]5CC[C@]43C)[C@@H]12
GI50 (A549 NSCLC): 3.37 µM | TGI (A549 NSCLC): > 100 µM | GI50 (NCI-H522 lung): 3.93 µM | TGI (NCI-H522 lung): > 100 µM | GI50 (CCRF-CEM leukemia): 3.86 µM | TGI (CCRF-CEM leukemia): > 100 µM | GI50 (NCI/ADR-RES ovarian): 3.74 µM | TGI (NCI/ADR-RES ovarian): > 100 µM | GI50 (T-47D breast): 3.38 µM | TGI (T-47D breast): > 100 µM | GI50 (SK-MEL-2 melanoma): 4.35 µM | TGI (SK-MEL-2 melanoma): 42.9 µM | GI50 (RXF 393 renal): 3.61 µM | TGI (RXF 393 renal): 52.5 µM | GI50 (U251 CNS): 4.61 µM | TGI (U251 CNS): > 100 µM | GI50 (OVCAR-5 ovarian): 3.61 µM | TGI (OVCAR-5 ovarian): > 100 µM | GI50 (OVCAR-4 ovarian): 3.31 µM | TGI (OVCAR-4 ovarian): > 100 µM

O=[N+]([O-])c1cc2c(c([N+](=O)[O-])c1)Nc1ccccc1O2
GI50 (A549 NSCLC): 5.51 µM | TGI (A549 NSCLC): 60.4 µM | GI50 (NCI-H522 lung): 2.78 µM | TGI (NCI-H522 lung): 31.4 µM | GI50 (CCRF-CEM leukemia): 13.2 µM | TGI (CCRF-CEM leukemia): > 100 µM | GI50 (NCI/ADR-RES ovarian): 3.41 µM | TGI (NCI/ADR-RES ovarian): 55.4 µM | GI50 (T-47D breast): 2.79 µM | TGI (T-47D breast): 10.2 µM | GI50 (SK-MEL-2 melanoma): 7.48 µM | TGI (SK-MEL-2 melanoma): 40.3 µM | GI50 (RXF 393 renal): 7.35 µM | TGI (RXF 393 renal): 46.3 µM | GI50 (U251 CNS): 3.32 µM | TGI (U251 CNS): 22.6 µM | GI50 (OVCAR-5 ovarian): 14.9 µM | TGI (OVCAR-5 ovarian): 62.2 µM | GI50 (OVCAR-4 ovarian): 5.99 µM | TGI (OVCAR-4 ovarian): 68.3 µM

— PubChem BioAssay (NCI)
